In patent publication US10294236B2, “Compounds as rearranged during transfection (RET) inhibitors” (GLAXOSMITHKLINE INTELLECTUAL PROPERTY DEVELOPMENT LIMITED, priority 2014, dated 2019):

target: T1, Human RET kinase cytoplasmic domain (Homo sapiens, UniProt P07949); assay: RET kinase enzymatic assay; format: biochemical
T1 construct: made in house
T1 sequence (P07949 658-1114): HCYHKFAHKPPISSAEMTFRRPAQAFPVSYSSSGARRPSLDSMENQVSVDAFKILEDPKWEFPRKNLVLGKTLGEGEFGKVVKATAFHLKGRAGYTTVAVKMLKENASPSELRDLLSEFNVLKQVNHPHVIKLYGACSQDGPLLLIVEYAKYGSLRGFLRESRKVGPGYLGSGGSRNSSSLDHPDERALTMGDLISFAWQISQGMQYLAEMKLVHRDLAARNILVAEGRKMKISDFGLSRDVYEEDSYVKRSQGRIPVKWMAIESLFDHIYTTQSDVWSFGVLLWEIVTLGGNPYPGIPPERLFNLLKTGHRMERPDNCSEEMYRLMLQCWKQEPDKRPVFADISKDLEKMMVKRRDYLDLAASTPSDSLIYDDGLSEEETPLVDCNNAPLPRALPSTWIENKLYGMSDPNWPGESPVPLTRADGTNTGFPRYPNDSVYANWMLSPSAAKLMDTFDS
Procedure: GST-RET was purified using glutathione sepharose chromatography. The RET kinase enzymatic assay was performed in a total volume of 10 uL with increasing concentrations of RET kinase inhibitor as a singlet in a 384 well format as follows: RET inhibitor compound plates are prepared by adding 100 nL of RET inhibitor at different concentrations to a 384-well plate. 5 μL/well of a 2× enzyme mix (50 mM HEPES (4-(2-hydroxyethyl)-1-piperazineethanesulfonic acid); 1 mM CHAPS (3-[(3-cholamidopropyl)dimethylammonio]-1-propanesulfonate); 0.1 mg/mL BSA (bovine serum albumin); 1 mM DTT (dithiothreitol); 0.2 nM RET kinase) was added to the 384-well plate and incubated for 30 minutes at 23° C. 5 µL/well of a 2× substrate mix (50 mM HEPES; 1 mM CHAPS; 0.1 mg/mL BSA; 20 μM adenosine triphosphate; 20 mM MgCl2 and 1 μM biotinylated peptide substrate) was added and incubated for 1 hour at 23° C. […] IC50s were fitted using GraphPad Prism to a sigmoidal dose response.

IC50, < 100 nM:
CC1(Oc2ccc(NC(=O)Nc3ccc(-c4c[nH]c(=O)c5occc45)cc3F)cc2C(F)(F)F)COC1 [Example 1, 1-(2-Fluoro-4-(7-oxo-6,7-dihydrofuro[2,3-c]pyridin-4-yl)phenyl)-3-(4-((3-methyloxetan-3-yl)oxy)-3-(trifluoromethyl)phenyl)urea]
CCOc1cc(-c2ccc(NC(=O)Nc3cc(-n4cnc(C)c4)cc(C(F)(F)F)c3)c(F)c2)c[nH]c1=O [Example 2, 1-(4-(5-Ethoxy-6-oxo-1,6-dihydropyridin-3-yl)-2-fluorophenyl)-3-(3-(4-methyl-1H-imidazol-1-yl)-5-(trifluoromethyl)phenyl)urea]
CCOc1ccc(NC(=O)Nc2ccc(-c3c[nH]c(=O)c4c3CCC4)cc2F)cc1C(F)(F)F [Example 3, 1-(4-Ethoxy-3-(trifluoromethyl)phenyl)-3-(2-fluoro-4-(1-oxo-2,5,6,7-tetrahydro-1H-cyclopenta[c]pyridin-4-yl)phenyl)urea]
CC1(Oc2ccc(NC(=O)Nc3ccc(-c4c[nH]c(=O)c5cn[nH]c45)cc3F)cc2C(F)(F)F)COC1 [Example 4, 1-(2-Fluoro-4-(4-oxo-4,5-dihydro-1H-pyrazolo[4,3-c]pyridin-7-yl)phenyl)-3-(4-((3-methyloxetan-3-yl)oxy)-3-(trifluoromethyl)phenyl)urea]
CCOc1cc(-c2ccc(NC(=O)Nc3ccc(OC(C)C)c(C(F)(F)F)c3)c(C)n2)c[nH]c1=O [Example 5, 1-(5′-Ethoxy-6-methyl-6′-oxo-1′,6′-dihydro-[2,3′-bipyridin]-5-yl)-3-(4-isopropoxy-3-(trifluoromethyl)phenyl)urea]
CCOc1cc(-c2ccc(NC(=O)Nc3ccc(OC(C)C)c(C(F)F)c3)c(C)n2)c[nH]c1=O [Example 6, 1-(3-(Difluoromethyl)-4-isopropoxyphenyl)-3-(5′-ethoxy-6-methyl-6′-oxo-1′,6′-dihydro-[2,3′-bipyridin]-5-yl)urea]
Cc1cc(-c2ccc(NC(=O)Nc3ccc(OC4(C)COC4)c(C(F)(F)F)c3)c(F)c2)c[nH]c1=O [Example 7, 1-(2-fluoro-4-(5-methyl-6-oxo-1,6-dihydropyridin-3-yl)phenyl)-3-(4-((3-methyloxetan-3-yl)oxy)-3-(trifluoromethyl)phenyl)urea]
CCOc1cc(-c2ccc(NC(=O)Nc3ccc(OC(C)C)c(C(F)(F)F)c3)nc2C)c[nH]c1=O [Example 8, 1-(5′-Ethoxy-2-methyl-6′-oxo-1′,6′-dihydro-[3,3′-bipyridin]-6-yl)-3-(4-isopropoxy-3-(trifluoromethyl)phenyl)urea]
CCOc1cc(-c2cnc(NC(=O)Nc3ccc(CC(C)(C)CO)c(C(F)(F)F)c3)c(C)c2)c[nH]c1=O [Example 9, 1-(5′-Ethoxy-5-methyl-6′-oxo-1′,6′-dihydro-[3,3′-bipyridin]-6-yl)-3-(4-(3-hydroxy-2,2-dimethylpropyl)-3-(trifluoromethyl)phenyl)urea]
CCOc1cc(-c2ncc(NC(=O)Nc3ccc(C(C)O)c(C(F)(F)F)c3)c(C)n2)c[nH]c1=O (stereo not shown) [Example 10, 1-(2-(5-Ethoxy-6-oxo-1,6-dihydropyridin-3-yl)-4-methylpyrimidin-5-yl)-3-(4-(1-hydroxyethyl)-3-(trifluoromethyl)phenyl)urea]
CCOc1cc(-c2ccc(NC(=O)Nc3cc(C(C)(C)C(F)(F)F)on3)c(F)c2)c[nH]c1=O [Example 11, 1-(4-(5-Ethoxy-6-oxo-1,6-dihydropyridin-3-yl)-2-fluorophenyl)-3-(5-(1,1,1-trifluoro-2-methylpropan-2-yl)isoxazol-3-yl)urea]
CCOc1cc(=O)[nH]cc1-c1ncc(NC(=O)Nc2ccc(CC3(C)COC3)c(C(F)(F)F)c2)c(C)n1 [Example 12, 1-(2-(4-Ethoxy-6-oxo-1,6-dihydropyridin-3-yl)-4-methylpyrimidin-5-yl)-3-(4-((3-methyloxetan-3-yl)methyl)-3-(trifluoromethyl)phenyl)urea]
CCOc1cc(-c2ncc(NC(=O)Nc3ccc(CC4(C)COC4)c(C(F)(F)F)c3)c(C)n2)c[nH]c1=O [Example 13, 1-(2-(5-Ethoxy-6-oxo-1,6-dihydropyridin-3-yl)-4-methylpyrimidin-5-yl)-3-(4-((3-methyloxetan-3-yl)methyl)-3-(trifluoromethyl)phenyl)urea]
CCOc1cc(-c2ncc(NC(=O)Nc3ccc(CC(C)(C)C#N)c(C(F)(F)F)c3)c(C)n2)c[nH]c1=O [Example 14, 1-(4-(2-Cyano-2-methylpropyl)-3-(trifluoromethyl)phenyl)-3-(2-(5-ethoxy-6-oxo-1,6-dihydropyridin-3-yl)-4-methylpyrimidin-5-yl)urea]
CCOc1cc(-c2ncc(NC(=O)Nc3cc(C(C)(C)C(F)(F)F)on3)c(C)n2)c[nH]c1=O [Example 15, 1-(2-(5-Ethoxy-6-oxo-1,6-dihydropyridin-3-yl)-4-methylpyrimidin-5-yl)-3-(5-(1,1,1-trifluoro-2-methylpropan-2-yl)isoxazol-3-yl)urea]
CCOc1cc(-c2cnc(NC(=O)Nc3cc(C(C)(C)C(F)(F)F)on3)c(C)n2)c[nH]c1=O [Example 16, 1-(5-(5-Ethoxy-6-oxo-1,6-dihydropyridin-3-yl)-3-methylpyrazin-2-yl)-3-(5-(1,1,1-trifluoro-2-methylpropan-2-yl)isoxazol-3-yl)urea]
O=C(Nc1ccc(-c2ccc(=O)[nH]c2)cc1)Nc1ccc(CN2CCNCC2)c(C(F)(F)F)c1 [Example 17, 1-(4-(6-Oxo-1,6-dihydropyridin-3-yl)phenyl)-3-(4-(piperazin-1-ylmethyl)-3-(trifluoromethyl)phenyl)urea]
CCOc1cc(=O)[nH]cc1-c1ccc(NC(=O)Nc2ccc(OC3(C)COC3)c(C(F)(F)F)c2)c(F)c1 [Example 18, 1-(4-(4-Ethoxy-6-oxo-1,6-dihydropyridin-3-yl)-2-fluorophenyl)-3-(4-((3-methyloxetan-3-yl)oxy)-3-(trifluoromethyl)phenyl)urea]
CC1(Oc2ccc(NC(=O)Nc3ccc(-c4c[nH]c(=O)c5ccoc45)cc3F)cc2C(F)(F)F)COC1 [Example 19, 1-(2-Fluoro-4-(4-oxo-4,5-dihydrofuro[3,2-c]pyridin-7-yl)phenyl)-3-(4-((3-methyloxetan-3-yl)oxy)-3-(trifluoromethyl)phenyl)urea]
CC1(Oc2ccc(NC(=O)Nc3ccc(-c4c[nH]c(=O)c(OC5CC5)c4)cc3F)cc2C(F)(F)F)COC1 [Example 20, 1-(4-(5-Cyclopropoxy-6-oxo-1,6-dihydropyridin-3-yl)-2-fluorophenyl)-3-(4-((3-methyloxetan-3-yl)oxy)-3-(trifluoromethyl)phenyl)urea]
COc1cc(-c2ccc(NC(=O)Nc3ccc(OC4(C)COC4)c(C(F)(F)F)c3)cc2)c[nH]c1=O [Example 21, 1-(4-(5-Methoxy-6-oxo-1,6-dihydropyridin-3-yl)phenyl)-3-(4-((3-methyloxetan-3-yl)oxy)-3-(trifluoromethyl)phenyl)urea]
CC1(Oc2ccc(NC(=O)Nc3ccc(-c4c[nH]c(=O)c5c4OCC5)cc3F)cc2C(F)(F)F)COC1 [Example 22, 1-(2-Fluoro-4-(4-oxo-2,3,4,5-tetrahydrofuro[3,2-c]pyridin-7-yl)phenyl)-3-(4-((3-methyloxetan-3-yl)oxy)-3-(trifluoromethyl)phenyl)urea]
CCOc1cc(-c2ncc(NC(=O)Nc3ccc(C(C)(C)C#N)c(C(F)(F)F)c3)c(C)n2)c[nH]c1=O [Example 23, 1-(4-(2-Cyanopropan-2-yl)-3-(trifluoromethyl)phenyl)-3-(2-(5-ethoxy-6-oxo-1,6-dihydropyridin-3-yl)-4-methylpyrimidin-5-yl)urea]
CCOc1cc(=O)[nH]cc1-c1ncc(NC(=O)Nc2ccc(C(C)C#N)c(C(F)(F)F)c2)c(C)n1 (stereo not shown) [Example 24, 1-(4-(1-Cyanoethyl)-3-(trifluoromethyl)phenyl)-3-(2-(4-ethoxy-6-oxo-1,6-dihydropyridin-3-yl)-4-methylpyrimidin-5-yl)urea]
CCOc1cc(-c2ncc(NC(=O)Nc3ccc(C(C)C#N)c(C(F)(F)F)c3)c(C)n2)c[nH]c1=O (stereo not shown) [Example 25, 1-(4-(1-Cyanoethyl)-3-(trifluoromethyl)phenyl)-3-(2-(5-ethoxy-6-oxo-1,6-dihydropyridin-3-yl)-4-methylpyrimidin-5-yl)urea]
